Data as given in PubChem BioAssay AID1033 (Sanford-Burnham Center for Chemical Genomics, 2008).
Activity calls are given as the source filed them. The rule behind the calls is not given here.

target: Chaperone protein DnaK (Escherichia coli (strain K12)) (UniProt P0A6Y8); experiment: E. coli DnaK SBD ligand binding – biophysical, NMR, chaperone (AID 1033); conditions: Purified DnaK SBD
Sequence (P0A6Y8 whole entry, looked up): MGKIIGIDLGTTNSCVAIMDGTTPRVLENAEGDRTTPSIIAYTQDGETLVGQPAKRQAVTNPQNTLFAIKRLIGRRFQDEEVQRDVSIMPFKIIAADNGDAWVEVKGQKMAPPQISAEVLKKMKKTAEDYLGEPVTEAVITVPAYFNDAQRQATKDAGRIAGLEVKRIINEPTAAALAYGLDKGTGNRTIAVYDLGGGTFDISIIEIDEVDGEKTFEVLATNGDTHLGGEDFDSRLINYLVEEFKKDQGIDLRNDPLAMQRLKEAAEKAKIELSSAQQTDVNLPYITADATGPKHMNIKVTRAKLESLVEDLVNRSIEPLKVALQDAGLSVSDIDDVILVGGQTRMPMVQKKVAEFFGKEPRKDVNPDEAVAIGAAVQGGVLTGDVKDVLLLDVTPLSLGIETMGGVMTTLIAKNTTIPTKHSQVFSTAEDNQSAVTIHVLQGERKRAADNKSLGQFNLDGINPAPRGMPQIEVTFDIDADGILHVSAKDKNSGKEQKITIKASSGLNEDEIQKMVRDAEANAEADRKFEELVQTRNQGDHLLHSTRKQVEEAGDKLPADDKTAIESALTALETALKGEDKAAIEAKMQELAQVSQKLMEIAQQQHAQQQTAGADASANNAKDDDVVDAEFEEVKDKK

Row | Structure (SMILES) | Kd
1 | C=C1C([C@]2(C)C(CC(=O)OC)[C@@](C)(COC(C)=O)OC(=O)C[C@@H]2OC(C)=O)[C@@H](OC=O)[C@H](OC(=O)C(OC(C)=O)C(C)CC)[C@@]2(C)[C@H](c3ccoc3)CC(=O)C12O (stereo partly drawn) | > 4 mM (inactive)
2 | CN(C)c1ccc(/C=C2/NC(=S)NC2=O)cc1 | > 4 mM (inactive)
3 | NC(=O)CN1C(=O)c2cccc3cccc1c23 | > 4 mM (inactive)
4 | O=S(=O)(Cc1ccccc1Cl)Nc1ccccn1 | > 4 mM (inactive)
5 | O=C(Nc1ccc(-c2nnco2)cc1)c1ccccc1 | > 4 mM (inactive)
6 | O=C(c1ccccc1)c1cncc(Br)c1 | > 4 mM (inactive)
7 | S=c1[nH]cnc2sccc12 | > 4 mM (inactive)
8 | CC(=O)N1CCN(C2CCSC2)CC1 (stereo not drawn) | > 4 mM (inactive)
9 | COc1c2c(c(CC=C(C)C)c3oc(=O)c(-c4ccc(O)cc4)c(O)c13)OC(C)(C)C=C2 | > 4 mM (inactive)
10 | O=C(O)CCCCCCCC(=O)O | > 4 mM (inactive)
11 | O=C(O)Cn1cnc2ccccc2c1=O | > 4 mM (inactive)
12 | O=C(Nc1nnc(-c2ccco2)o1)C1=COCCO1 | > 4 mM (inactive)
13 | c1ccc(Cc2nnc3sc(-c4ccccn4)nn23)cc1 | > 4 mM (inactive)
14 | COC(=O)CC1SC(=O)NC1=O (stereo not drawn) | > 4 mM (inactive)
15 | COc1ccc(-c2ccc(OC)cc2C(=O)O)cc1 | > 4 mM (inactive)
16 | CCOC(=O)c1c(C)cc(O)c(C=O)c1O | > 4 mM (inactive)
17 | COC(=O)C[C@H]1C(C)(C)C(=O)[C@@H]2CC3=C(CC[C@]4(C)C3=CC(=O)O[C@H]4c3ccoc3)C1(C)C2=O | > 4 mM (inactive)
18 | Cc1csc2nc(=O)c3ccccc3n12 | > 4 mM (inactive)
19 | O=C(O)c1cn(-c2ccccc2)nc1-c1cccnc1 | > 4 mM (inactive)
20 | O=C(O)CCCc1nc2ccccc2s1 | > 4 mM (inactive)
21 | O=C(NN1C(=O)c2ccccc2C1=O)c1cccs1 | > 4 mM (inactive)
22 | COc1ccc(NC(=O)CSc2nccc(=O)[nH]2)cc1 | > 4 mM (inactive)
23 | Cc1cc(C(=O)Nc2ccon2)cs1 | > 4 mM (inactive)
24 | O=C1NC(=S)N/C1=C\c1cccc([N+](=O)[O-])c1 | > 4 mM (inactive)

Row | Structure (SMILES) | Kd
25 | NC(=O)CC[C@H](N)C(=O)O | > 4 mM (inactive)
26 | CC(C)Nc1ncnc2c1nnn2C | > 4 mM (inactive)
27 | CC(=O)Nc1ccn(Cc2c(F)cccc2Cl)n1 | > 4 mM (inactive)
28 | CC(=O)c1cc(-c2nc3ccccc3n2C)n(C)c1 | > 4 mM (inactive)
29 | O=C1CC(=O)N2N=C(c3ccccc3)SC2=N1 | > 4 mM (inactive)
30 | COc1ccc(C(=O)NNC(=S)NC(C)=O)cc1 | > 4 mM (inactive)
31 | O=C(O)C(CO)c1ccccc1 (stereo not drawn) | > 4 mM (inactive)
32 | CC1(C)C2CC[C@]3(C)C(C(=O)C=C4[C@H]5C[C@@](C)(C(=O)O)CC[C@]5(C)CC[C@]43C)[C@@]2(C)CC[C@@H]1O (stereo partly drawn) | > 4 mM (inactive)
33 | O=c1c2ccccc2ncn1C1CCCCC1 | > 4 mM (inactive)
34 | NCCCCN | > 4 mM (inactive)
35 | NC(=O)CSc1ccc(Br)cc1 | > 4 mM (inactive)
36 | Cc1cc(C)n(-c2nc(N)cc(=O)[nH]2)n1 | > 4 mM (inactive)
37 | C[n+]1cccc(C(=O)[O-])c1 | > 4 mM (inactive)
38 | CC[C@H]1CN2CCc3cc(OC)c(OC)cc3C2C[C@@H]1CC1NCCc2cc(OC)c(OC)cc21 (stereo partly drawn) | > 4 mM (inactive)
39 | NC12CC3CC(C1)CC(CC(=O)O)(C3)C2 | > 4 mM (inactive)
40 | O=C(/C=C/c1ccco1)NC1=NCCS1 | > 4 mM (inactive)
41 | CCOC(=O)c1cc(C)n(C)n1 | > 4 mM (inactive)
42 | O=C(O)CCn1cncn1 | > 4 mM (inactive)
43 | O=C(CC1NC(=O)NC1=O)Nc1ccccc1 (stereo not drawn) | > 4 mM (inactive)
44 | O=C1CC(=O)N(c2cccc(Cl)c2)N1 | > 4 mM (inactive)
45 | NS(=O)(=O)c1ccccc1Cl | > 4 mM (inactive)
46 | CC(=O)Nc1nc(C)c(C(C)=O)s1 | > 4 mM (inactive)
47 | O=c1ccc2cc(O)c(O)cc2o1 | > 4 mM (inactive)
48 | COc1ccc(C)cc1S(=O)(=O)NC1CCCC1 | > 4 mM (inactive)

Row | Structure (SMILES) | Kd
49 | Cc1nnc(SCC(=O)N2CCCCC2)s1 | > 4 mM (inactive)
50 | Cc1ccc(C(=O)Nc2ccncc2)o1 | > 4 mM (inactive)
51 | CCOC(=O)CSCC(=O)Nc1nccs1 | > 4 mM (inactive)
52 | CC(=O)OC1CCC23CC1(C)CCC2C(C)(C)CC3OC(C)=O (stereo not drawn) | > 4 mM (inactive)
53 | O=C(Nc1ccc2c(c1)OCO2)c1c(F)cccc1F | > 4 mM (inactive)
54 | O=C1CS/C(=N/S(=O)(=O)c2ccccc2)N1 | > 4 mM (inactive)
55 | Cc1cc2ncc(C(=O)Nc3ccccc3)c(C)n2n1 | > 4 mM (inactive)
56 | Cc1nnc(SCC(=O)Nc2ccccc2)[nH]c1=O | > 4 mM (inactive)
57 | CC(=O)OC/C=C(\C)CC/C=C(\C)CC/C=C(\C)CC/C=C(\C)CC/C=C(\C)CC/C=C(\C)CC/C=C(\C)CC/C=C(\C)CCC=C(C)C | > 4 mM (inactive)
58 | COC(=O)CC1=Nc2ccccc2NC(=O)C1 | > 4 mM (inactive)
59 | Cc1cc(NC(=O)c2cnn3cccnc23)no1 | > 4 mM (inactive)
60 | N#CCN1C(=O)c2ccccc2S1(=O)=O | > 4 mM (inactive)
61 | CC1=C(CCC(=O)O)c2cc3nc(cc4[nH]c(cc5[nH]c(cc1n2)c(C)c5C(C)O)c(C)c4C(C)O)C(C)=C3CCC(=O)O (stereo not drawn) | > 4 mM (inactive)
62 | COC1C(O)C(O[C@H]2CC[C@]3(C=O)C4C(CC[C@]3(O)C2)[C@@]2(O)CC[C@H](C3=CC(=O)OC3)[C@@]2(C)C[C@H]4OC(C)=O)OC(C)C1OC(C)=O (stereo partly drawn) | > 4 mM (inactive)
63 | O=C(c1ccncc1)N1CCN(C(=O)c2ccncc2)CC1 | > 4 mM (inactive)
64 | COc1ccc(C2(C)CC(=O)NC2=O)cc1 (stereo not drawn) | > 4 mM (inactive)
65 | C=CCCCCCCCCCCCc1ccco1 | > 4 mM (inactive)
66 | O=C(O)/C=C/C=C/c1ccccc1 | > 4 mM (inactive)
67 | O=C(Nc1ccccc1)C(=O)NC1CC1 | > 4 mM (inactive)
68 | COCCn1c(C)cc(O)cc1=O | > 4 mM (inactive)
69 | CCOC(=O)C1CN(C)CCN1C (stereo not drawn) | > 4 mM (inactive)
70 | COc1cc(C)c2c(c1C=O)Oc1c(c(C)c(O)c3c1C(O)OC3=O)OC2=O (stereo not drawn) | > 4 mM (inactive)
71 | Cc1cc(=O)n2nc(-c3ccccc3)sc2n1 | > 4 mM (inactive)
72 | Cc1ccc(CN2CCN(C(=O)C3CCC3)CC2)cc1 | > 4 mM (inactive)

Row | Structure (SMILES) | Kd
73 | Clc1ncnc2[nH]ncc12 | > 4 mM (inactive)
74 | Cn1nc(-c2ccccc2)cc1N | > 4 mM (inactive)
75 | CCN1CCC(NC2CCCCNC2=O)CC1 (stereo not drawn) | > 4 mM (inactive)
76 | Oc1ccc2nonc2c1 | > 4 mM (inactive)
77 | Nc1cccnc1Oc1ccc(F)cc1F | > 4 mM (inactive)
78 | Cc1nc(-c2ccc(C(=O)N3CCOCC3)cc2)cs1 | > 4 mM (inactive)
79 | CC(C)=CC(=O)Nc1ccc(S(N)(=O)=O)cc1 | > 4 mM (inactive)
80 | N#C/C(=C\c1ccc[nH]1)S(=O)(=O)c1ccccc1 | > 4 mM (inactive)
81 | Cc1cc(SCC(=O)Nc2nccs2)nc(=O)[nH]1 | > 4 mM (inactive)
82 | O=C(Nc1ccon1)c1csc2c1CCCC2 | > 4 mM (inactive)
83 | NC(=O)Cn1cnc2ccccc21 | > 4 mM (inactive)
84 | CCC(=O)Oc1ccc(N2C(=O)CCC2=O)cc1 | > 4 mM (inactive)
85 | COc1cc(OC)c2ccc(=O)oc2c1 | > 4 mM (inactive)
86 | CC(NC(=O)c1ccco1)c1ccc2c(c1)OCCO2 (stereo not drawn) | > 4 mM (inactive)
87 | CNC(=O)c1ccccc1-c1ccccc1 | > 4 mM (inactive)
88 | O=C(O)/C=C/c1ccc(O)c(O)c1 | > 4 mM (inactive)
89 | NS(=O)(=O)c1ccc(N=Cc2ccc[nH]2)cc1 | > 4 mM (inactive)
90 | CC(C)=CCCC1(C)C=Cc2c(O)c3c(c(CC=C(C)C)c2O1)OC12C(=CCCC1C(C)(C)O[C@@]2(C/C=C(\C)C(=O)O)C(=O)O)C3=O (stereo partly drawn) | > 4 mM (inactive)
91 | Cc1ccc(C(=O)Nc2c[nH]c(=O)[nH]c2=O)cc1 | > 4 mM (inactive)
92 | O=C(NCc1ccco1)c1cccc(F)c1 | > 4 mM (inactive)
93 | Cc1n[nH]c(C)c1-c1ccccc1C(=O)O | > 4 mM (inactive)
94 | OCCNC(=S)Nc1ccccc1 | > 4 mM (inactive)
95 | Cc1cc(O)c(C)c(O)c1C(=O)O | > 4 mM (inactive)
96 | CC1(C)N=C2C(=N)C=CC=C2N1O | > 4 mM (inactive)

Row | Structure (SMILES) | Kd
97 | COC(=O)c1c(SC)nc(-c2ccccc2)[nH]c1=O | > 4 mM (inactive)
98 | Nc1nc2[nH]c(=O)c(=O)[nH]c2c(=O)[nH]1 | > 4 mM (inactive)
99 | Cc1nc2ccccc2c(=O)n1CCCO | > 4 mM (inactive)
100 | CC1CCC2(OC1)OC1CC3C4CCC5C[C@@H](O)CCC5(C)C4=CCC3(C)C1[C@@H]2C (stereo partly drawn) | > 4 mM (inactive)
101 | NS(=O)(=O)c1ccc(NC(=S)NC2CC2)cc1 | > 4 mM (inactive)
102 | COc1ccc(-c2coc3cc(O)ccc3c2=O)c(OC)c1 | > 4 mM (inactive)
103 | Nc1cc(C(=O)N2CCCC2)cc(C(=O)N2CCCC2)c1 | > 4 mM (inactive)
104 | CN1CN(Cc2ccccc2)CN/C1=N/[N+](=O)[O-] | > 4 mM (inactive)
105 | CC(C)CCn1cnc2c1c(=O)n(C)c(=O)n2C | > 4 mM (inactive)
106 | NCc1nc2ccccc2s1 | > 4 mM (inactive)
107 | Nc1cccc(C(=O)c2ccccc2)c1 | > 4 mM (inactive)
108 | CSc1cc(C)[nH]c(=O)n1 | > 4 mM (inactive)
109 | O=c1[nH]cnc2nc[nH]c12 | > 4 mM (inactive)
110 | COc1ccccc1-c1noc(-c2ccco2)n1 | > 4 mM (inactive)
111 | Oc1cc2c(cc1O)C1c3ccc(O)c(O)c3OCC1(O)C2 (stereo not drawn) | > 4 mM (inactive)
112 | Cn1ccnc1SCc1cc(=O)[nH]c2ccccc12 | > 4 mM (inactive)
113 | O=C(NCc1cccc2ccsc12)c1cccs1 | < 0.2 mM
114 | OCc1ccc(-n2cccn2)cc1 | > 4 mM (inactive)
115 | c1ccc2[nH]c(NCCN3CCOCC3)nc2c1 | > 4 mM (inactive)
116 | CN1CCN(c2ncnc3nc[nH]c23)CC1 | > 4 mM (inactive)
117 | C=C(C)[C@H]1CC=C(C(=O)O)CC1 | > 4 mM (inactive)
118 | COC(=O)C[C@H]1C(C)(C)C(=O)[C@@H]2CC3=C4CC(=O)O[C@@H](c5ccoc5)[C@]4(C)CCC3C1(C)C2=O (stereo partly drawn) | > 4 mM (inactive)
